Results as given in patent publication EP0286781A2, “Pharmaceutical preparation for treating gastro-intestinal tract diseases” (HEUMANN PHARMA GMBH & CO, priority 1987, dated 1988).

Experiments:
[1] = tested on: immobilisationsstreßinduzierten gastromukosalen Schädigung der Ratte; assay: Immobilisation-stress-induced gastromucosal damage in the rat (ulcer index); format: in vivo, Sprague-Dawley-Ratten; details: Dosis 50 mg/kg, intragastral in 1%iger Tylose
Text: Untersuchungen am Modell der immobilisationsstreßinduzierten gastromukosalen Schädigung der Ratte
(1984), "Scand. J. Gastroenterol.", 19, (Suppl. 101), 69).
Gestreßt wurden die Tiere unmittelbar nach Applikation. Nach Versuchsende wurden den Tieren die Mägen in Ethernarkose entnommen. Die Mägen wurden entlang der großen Kurvatur eröffnet und gespült. Ausmaß und Beschaffenheit der Läsionen wurden nach einer von Marazzi-Uberti und Turba (C. Med. exp., 4, 284 (1961)) angegebenen Einteilung visuell ausgezählt und als Ulcus-Index ausgedrückt.

[2] = hochdosiert, ca. 50 mg/kg; A. Robert u.a. (1984); cited from earlier work

## CN=C(NC#N)NCCSCc1[nH]cnc1C [Cimetidin]
[1]; rats fasted 16 h, 10 animals, control 1% Tylose 69,8 ± 10,7, significant vs control
  Ulcus-Index (MW ±) SD: 32,1 ± 6,6*)
[1]; inhibition of Ulcus-Index vs 1% Tylose control
  % Hemmung: 54%
[2]
  ulcus- bzw. cytoprotektive Wirkung: ulcus- bzw. cytoprotektive Wirkung
